Test results: US10399972B2, “Tricyclic compounds as inhibitors of mutant IDH enzymes” (Merck Sharp & Dohme Corp., priority 2015, dated 2019)

Target: R132H mutant IDH1 enzyme (Homo sapiens (Human), UniProt O75874, R132H)
Assay: R132H IDH1 Enzymatic Assay
Assay type: biochemical
Details: 1.5 nM final, 30 min preincubation, 60 min reaction, Kinase-GLO luminescence
Description: R132H IDH1 Enzymatic Assay
Each test compound (10 mM stock in DMSO) is diluted in DMSO to make a 10-point, 3-fold dilution series. 125 nL of each dilution or DMSO alone is dispensed to a 384-well Greiner Lumitrac 200 assay plate using an Echo® Liquid Handler. To each well of the plate is added 20 uL of enzyme in assay buffer or assay buffer alone. Assay buffer consists of 50 mM sodium phosphate, pH 7.0, 50 mM magnesium chloride, 50 mM sodium chloride, and 0.01% (w/v) bovine serum albumin. When present, the R132H mutant IDH1 enzyme is at a working concentration of 1.875 nM (final concentration in assay of 1.5 nM). The assay plate is allowed to incubate for 30 minutes at room temperature and 5 uL of 5× substrate mixture (2.5 uM nicotinamide adenine dinucleotide phosphate, 100 uM adenosine diphosphate, 7.5 mM glyceraldehyde-3-phosphate, 7.5 ug/mL of spinach glyceraldehyde-3-phosphate dehydrogenase, 25 nM phosphoglycerate kinase, and 5 mM alpha-ketoglutarate in assay buffer) is added to all wells. The reaction plate is incubated for 60 minutes followed by addition of 25 uL of Promega Kinase-GLO reagent to all wells and 10-minute incubation.
Luminescence is measured using a PerkinElmer Envision plate reader. The percent activity of each dilution is determined as the ratio of background corrected signal to the background corrected signal of wells receiving only DMSO. IC50 values are determined by fitting percent activity data to a four-parameter logistic dose response equation. The IC50 values of the exemplified compounds are included in Table 8.

Sequence of R132H mutant IDH1 enzyme (O75874 whole entry R132H): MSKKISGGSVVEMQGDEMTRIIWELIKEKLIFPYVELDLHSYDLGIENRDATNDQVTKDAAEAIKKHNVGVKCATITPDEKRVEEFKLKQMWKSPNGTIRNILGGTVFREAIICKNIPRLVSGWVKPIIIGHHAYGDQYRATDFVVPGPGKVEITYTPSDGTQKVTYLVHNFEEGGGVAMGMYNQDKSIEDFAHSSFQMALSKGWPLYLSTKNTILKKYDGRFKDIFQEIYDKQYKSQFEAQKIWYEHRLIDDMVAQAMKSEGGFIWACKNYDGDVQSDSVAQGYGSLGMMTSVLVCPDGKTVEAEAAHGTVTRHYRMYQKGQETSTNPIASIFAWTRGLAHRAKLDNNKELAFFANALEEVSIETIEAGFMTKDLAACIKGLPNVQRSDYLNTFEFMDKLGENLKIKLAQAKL

| SMILES | IC50 |
| --- | --- |
| O=C(C1CCN(CC(F)(F)F)CC1)N1Cc2cc(F)cnc2Nc2ccc(N3CC4CCC3CO4)cc21 (single isomer, unassigned) [Example 8, (8-(2-oxa-5-azabicyclo[2.2.2]octan-5-yl)-3-fluoro-5,11-dihydro-6H-benzo[b]pyrido[2,3-e][1,4]diazepin-6-yl)(1-(2,2,2-trifluoroethyl)piperidin-4-yl)methanone] | 25.4 nM |
| O=C(C1CCN(CC(F)(F)F)CC1)N1Cc2cc(F)cnc2Nc2ccc(N3CC4CCC3CO4)cc21 (single isomer, unassigned) [Example 9, (8-(2-oxa-5-azabicyclo[2.2.2]octan-5-yl)-3-fluoro-5,11-dihydro-6H-benzo[b]pyrido[2,3-e][1,4]diazepin-6-yl)(1-(2,2,2-trifluoroethyl)piperidin-4-yl)methanone] | 21.7 nM |
| CC(C)O[C@H]1CC[C@H](C(=O)N2Cc3cc(F)cnc3Nc3ccc(N4CC5CCC4CO5)cc32)CC1 (single isomer, unassigned) [Example 13, [3-fluoro-8-(2-oxa-5-azabicyclo[2.2.2]oct-5-yl)-5,11-dihydro-6H-pyrido[2,3-b][1,5]benzodiazepin-6-yl][trans-4-(propan-2-yloxy)cyclohexyl]methanone] | 35.5 nM |
| CC(C)O[C@H]1CC[C@H](C(=O)N2Cc3cc(F)cnc3Nc3ccc(N4CC5CCC4CO5)cc32)CC1 (single isomer, unassigned) [Example 14, [3-fluoro-8-(2-oxa-5-azabicyclo[2.2.2]oct-5-yl)-5,11-dihydro-6H-pyrido[2,3-b][1,5]benzodiazepin-6-yl][trans-4-(propan-2-yloxy)cyclohexyl]methanone] | 44.3 nM |
| CC(C)O[C@H]1CC[C@H](C(=O)N2Cc3cc(F)cnc3Nc3cc(F)c([C@@H]4COCCO4)cc32)OC1 (single isomer, unassigned) [Example 35] | 28 nM |
| CC(C)O[C@H]1CC[C@H](C(=O)N2Cc3cc(F)cnc3Nc3cc(F)c([C@@H]4COCCO4)cc32)OC1 (single isomer, unassigned) [Example 36] | 23.7 nM |
| CC(C)OC1CC[C@H](C(=O)N2Cc3cc(F)cnc3Nc3ccc(N4C[C@@H]5CC[C@H]4CO5)cc32)OC1 (stereo in doubt) [Example 49, (8-((1S,4S)-2-oxa-5-azabicyclo[2.2.2]octan-5-yl)-3-fluoro-5,11-dihydro-6H-benzo[b]pyrido[2,3-e][1,4]diazepin-6-yl)((2R,5R)-5-isopropoxytetrahydro-2H-pyran-2-yl)methanone] | 12 nM |
| O=C(C1CCN(CC(F)(F)F)CC1)N1Cc2cc(F)cnc2Nc2cc(F)c(Cl)cc21 [Example 5, (8-Chloro-3,9-difluoro-5,11-dihydro-6H-benzo[b]pyrido[2,3-e][1,4]diazepin-6-yl)(1-(2,2,2-trifluoroethyl)piperidin-4-yl)methanone] | 11.3 nM |
| O=C(C1CCN(CC(F)(F)F)CC1)N1Cc2cc(F)cnc2Nc2ccc(N3C[C@@H]4C[C@H]3CO4)cc21 [Example 6, (8-((1S,4S)-2-Oxa-5-azabicyclo[2.2.1]heptan-5-yl)-3-fluoro-5,11-dihydro-6H-benzo[b]pyrido[2,3-e][1,4]diazepin-6-yl)(1-(2,2,2-trifluoroethyl)piperidin-4-yl)methanone] | 12.1 nM |
| O=C(C1CCN(CC(F)(F)F)CC1)N1Cc2cc(F)cnc2Nc2ccc(N3[C@@H]4CO[C@H]5[C@@H]4OC[C@H]53)cc21 [Example 7, (3-fluoro-8-((3R,3aR,6R,6aR)-hexahydro-3,6-epiminofuro[3,2-b]furan-7-yl)-5,11-dihydro-6H-benzo[b]pyrido[2,3-e][1,4]diazepin-6-yl)(1-(2,2,2-trifluoroethyl)piperidin-4-yl)methanone] | 18.5 nM |
| CO[C@H]1C[C@H]2CC[C@@H](C1)N2c1ccc2c(c1)N(C(=O)C1CCN(CC(F)(F)F)CC1)Cc1cc(F)cnc1N2 [Example 10, (3-fluoro-8-((1R,3r,5S)-3-methoxy-8-azabicyclo[3.2.1]octan-8-yl)-5,11-dihydro-6H-benzo[b]pyrido[2,3-e][1,4]diazepin-6-yl)(1-(2,2,2-trifluoroethyl)piperidin-4-yl)methanone] | 6.2 nM |
| C[C@H]1CN(c2ccc3c(c2)N(C(=O)C2CCN(CC(F)(F)F)CC2)Cc2cc(F)cnc2N3)[C@@H](C)CO1 [Example 11, (8-((2S,5S)-2,5-dimethylmorpholino)-3-fluoro-5,11-dihydro-6H-benzo[b]pyrido[2,3-e][1,4]diazepin-6-yl)(1-(2,2,2-trifluoroethyl)piperidin-4-yl)methanone] | 23.8 nM |
| O=C(C1CCN(CC(F)(F)F)CC1)N1Cc2cc(F)cnc2Nc2ccc(N3CC4(CCCOC4)C3)cc21 [Example 12, (3-fluoro-8-(6-oxa-2-azaspiro[3.5]nonan-2-yl)-5,11-dihydro-6H-benzo[b]pyrido[2,3-e][1,4]diazepin-6-yl)(1-(2,2,2-trifluoroethyl)piperidin-4-yl)methanone] | 22.1 nM |
| O=C(C1CCN(CC(F)(F)F)CC1)N1Cc2cc(F)cnc2Nc2ccc(N3C[C@H]4COC[C@@H](C3)O4)cc21 [Example 15, (8-((1R,5S)-3,9-dioxa-7-azabicyclo[3.3.1]nonan-7-yl)-3-fluoro-5,11-dihydro-6H-benzo[b]pyrido[2,3-e][1,4]diazepin-6-yl)(1-(2,2,2-trifluoroethyl)piperidin-4-yl)methanone] | 83.4 nM |
| CC(C)O[C@H]1CC[C@H](C(=O)N2Cc3cc(F)cnc3Nc3ccc(N4CC5(CCCOC5)C4)cc32)CC1 [Example 16, [3-fluoro-8-(6-oxa-2-azaspiro[3.5]non-2-yl)-5,11-dihydro-6H-pyrido[2,3-b][1,5]benzodiazepin-6-yl][trans-4-(propan-2-yloxy)cyclohexyl]methanone] | 24 nM |
| CC(C)O[C@H]1CC[C@H](C(=O)N2Cc3cc(F)cnc3Nc3ccc(N4[C@@H]5CO[C@H]6[C@@H]5OC[C@H]64)cc32)CC1 [Example 17, (3-fluoro-8-((3R,3aR,6R,6aR)-hexahydro-3,6-epiminofuro[3,2-b]furan-7-yl)-5,11-dihydro-6H-benzo[b]pyrido[2,3-e][1,4]diazepin-6-yl)(trans-4-isopropoxycyclohexyl)methanone] | 28.4 nM |
| CC(C)O[C@H]1CC[C@H](C(=O)N2Cc3cc(F)cnc3Nc3ccc(N4C[C@@H]5C[C@H]4CO5)cc32)CC1 [Example 18, (8-((1S,4S)-2-oxa-5-azabicyclo[2.2.1]heptan-5-yl)-3-fluoro-5,11-dihydro-6H-benzo[b]pyrido[2,3-e][1,4]diazepin-6-yl)(trans-4-isopropoxycyclohexyl)methanone] | 8.6 nM |
| CC(C)O[C@H]1CC[C@@H](C(=O)N2Cc3cc(F)cnc3Nc3ccc(N4C[C@@H]5C[C@H]4CO5)cc32)CC1 [Example 19, (8-((1S,4S)-2-oxa-5-azabicyclo[2.2.1]heptan-5-yl)-3-fluoro-5,11-dihydro-6H-benzo[b]pyrido[2,3-e][1,4]diazepin-6-yl)(cis-4-isopropoxycyclohexyl)methanone] | 6 nM |
| O=C(C1CCN(CC(F)(F)F)CC1)N1Cc2cc(F)cnc2Nc2cc(F)c(N3C[C@@H]4C[C@H]3CO4)cc21 [Example 20, (8-((1S,4S)-2-oxa-5-azabicyclo[2.2.1]heptan-5-yl)-3,9-difluoro-5,11-dihydro-6H-benzo[b]pyrido[2,3-e][1,4]diazepin-6-yl)(1-(2,2,2-trifluoroethyl)piperidin-4-yl)methanone] | 6.7 nM |
